Source: article PMC11331448 (Journal of chemical information and modeling, 2024)

Molecular target: BChE (Homo sapiens, UniProt P06276)
Conditions: BChE versus AChE inhibition, colorimetric kits

Sequence of BChE (P06276 29-602, species assumed): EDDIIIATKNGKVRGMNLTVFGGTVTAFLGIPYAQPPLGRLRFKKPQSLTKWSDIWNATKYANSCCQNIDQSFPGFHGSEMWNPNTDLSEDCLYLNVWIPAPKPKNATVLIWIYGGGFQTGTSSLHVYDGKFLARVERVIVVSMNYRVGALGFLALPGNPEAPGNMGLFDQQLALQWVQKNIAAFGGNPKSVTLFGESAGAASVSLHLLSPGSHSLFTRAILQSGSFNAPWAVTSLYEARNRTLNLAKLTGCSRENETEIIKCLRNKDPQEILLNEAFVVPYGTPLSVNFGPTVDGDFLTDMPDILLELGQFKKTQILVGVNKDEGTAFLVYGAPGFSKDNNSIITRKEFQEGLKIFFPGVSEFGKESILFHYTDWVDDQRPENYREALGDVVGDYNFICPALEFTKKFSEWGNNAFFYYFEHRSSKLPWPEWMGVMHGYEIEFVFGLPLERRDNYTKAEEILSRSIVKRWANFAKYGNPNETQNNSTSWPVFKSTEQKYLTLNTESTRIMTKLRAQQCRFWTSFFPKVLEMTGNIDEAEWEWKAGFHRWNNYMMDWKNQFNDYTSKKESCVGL

OC(CN1CCCCC1)c1c[nH]c2ccccc12 (stereo not shown) [CPI7075, 1-(1H-indol-3-yl)-2-(piperidin-1-yl)ethanol]
BChE selectivity in vitro: selective BChE inhibitors
